Laboratory results as given in patent publication US12226412B2, “Heteroaryl-ketone fused azadecalin glucocorticoid receptor modulators” (Corcept Therapeutics, Inc., priority 2012, dated 2025).
Where two headings read alike, the source gives them in different places.

How the values were obtained:
human recombinant GR = target: T1, human recombinant GR (Homo sapiens, UniProt P04150); assay: Human glucocorticoid receptor (GR) fluorescence polarisation (FP) binding assay
T1 construct: purchased PanVera P2812
T1 sequence (P04150 1-777): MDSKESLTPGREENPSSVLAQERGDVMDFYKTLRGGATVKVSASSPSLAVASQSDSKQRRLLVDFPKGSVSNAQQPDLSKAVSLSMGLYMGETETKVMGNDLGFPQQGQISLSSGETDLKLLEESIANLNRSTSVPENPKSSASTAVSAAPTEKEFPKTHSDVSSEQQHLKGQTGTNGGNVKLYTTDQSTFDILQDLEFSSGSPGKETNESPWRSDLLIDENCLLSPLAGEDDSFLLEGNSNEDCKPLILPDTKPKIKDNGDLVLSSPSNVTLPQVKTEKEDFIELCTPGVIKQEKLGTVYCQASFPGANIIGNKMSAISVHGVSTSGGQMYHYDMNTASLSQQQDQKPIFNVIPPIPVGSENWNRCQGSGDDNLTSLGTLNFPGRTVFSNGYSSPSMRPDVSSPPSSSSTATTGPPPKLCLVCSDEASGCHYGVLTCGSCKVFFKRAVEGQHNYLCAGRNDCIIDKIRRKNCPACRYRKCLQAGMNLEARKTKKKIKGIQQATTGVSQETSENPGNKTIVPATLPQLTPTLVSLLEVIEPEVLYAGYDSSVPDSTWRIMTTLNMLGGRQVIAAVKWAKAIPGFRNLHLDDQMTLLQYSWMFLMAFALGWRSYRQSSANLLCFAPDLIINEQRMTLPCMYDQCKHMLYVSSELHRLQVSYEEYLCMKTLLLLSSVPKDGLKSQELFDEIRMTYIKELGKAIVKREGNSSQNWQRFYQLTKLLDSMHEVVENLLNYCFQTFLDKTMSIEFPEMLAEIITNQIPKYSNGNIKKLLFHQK
In short: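 Competition fluorescence polarisation: 0.5 nM GS Red labelled glucocorticoid and 1 nM recombinant human GR with 8-point half-log compound series, 1% DMSO, 4 h room temperature, potassium phosphate pH 7.4 buffer with molybdate, EDTA, DTT. Affinity derived from the drop in polarisation, normalised to blank wells.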

[1] = test system: induction of TAT by dexamethasone in HepG2 cells; assay: HepG2 tyrosine aminotransferase (TAT) assay; assay type: cell-based, human
[2] = human recombinant GR, fluorescence polarisation binding assay, read-out: GR binding
[3] = HepG2 cells, challenge of 100 nM dexamethasone, Ki from IC50 by Cheng and Prusoff equation

Row | Ki (human recombinant GR; [2]) [nM] | Compound | Ki [1, 3] [nM] | Ki (human recombinant GR) [nM] | Ki [1] [nM]
1 | < 0.5 | CCCn1cc(S(=O)(=O)N2CCC3=Cc4c(cnn4-c4ccc(F)cc4)C[C@]3(C(=O)c3nccs3)C2)cn1 [Example 12Y, (R)-(1-(4-fluorophenyl)-6-((1-propyl-1H-pyrazol-4-yl)sulfonyl)-4,4a,5,6,7,8-hexahydro-1H-pyrazolo[3,4-g]isoquinolin-4a-yl)(thiazol-2-yl)methanone] | < 20 |  | 
2 | < 0.5 | O=C(c1ccccn1)[C@]12Cc3cnn(-c4ccc(F)cc4)c3C=C1CCN(S(=O)(=O)c1ccc(C(F)(F)F)nc1)C2 [Example 2N, (R)-(1-(4-fluorophenyl)-6-((6-(trifluoromethyl)pyridin-3-yl)sulfonyl)-4,4a,5,6,7,8-hexahydro-1H-pyrazolo[3,4-g]isoquinolin-4a-yl) (pyridin-2-yl)methanone] | < 20 |  | 
3 | < 0.5 | O=C(c1nccs1)[C@]12Cc3cnn(-c4ccc(F)cc4)c3C=C1CCN(S(=O)(=O)c1cncc(N3CCCCC3)c1)C2 [Example 7, (R)-(1-(4-fluorophenyl)-6-((5-(piperidin-1-yl)pyridin-3-yl)sulfonyl)-4,4a,5,6,7,8-hexahydro-1H-pyrazolo[3,4-g]isoquinolin-4a-yl)(thiazol-2-yl)methanone] | 20 to 100 |  | 
4 | < 0.5 | N#Cc1cccc(S(=O)(=O)N2CCC3=Cc4c(cnn4-c4ccc(F)cc4)C[C@]3(C(=O)c3cc(C(F)(F)F)ccn3)C2)c1 [Example 11BL, (R)-3-((1-(4-fluorophenyl)-4a-(4-(trifluoromethyl)picolinoyl)-4a,5,7,8-tetrahydro-1H-pyrazolo[3,4-g]isoquinolin-6 (4H)-yl)sulfonyl)benzonitrile] | < 20 |  | 
5 | < 0.5 | O=C(c1ccccn1)[C@]12Cc3cnn(-c4ccc(F)cc4)c3C=C1CCN(S(=O)(=O)c1cncc(N3CCCC3)c1)C2 [Example 10B, (R)-(1-(4-fluorophenyl)-6-((5-(pyrrolidin-1-yl)pyridin-3-yl)sulfonyl)-4,4a,5,6,7,8-hexahydro-1H-pyrazolo[3,4-g]isoquinolin-4a-yl)(pyridin-2-yl)methanone] | < 20 |  | 
6 | < 0.5 | O=C(c1ccccn1)[C@]12Cc3cnn(-c4ccc(F)cc4)c3C=C1CCN(S(=O)(=O)c1ccccc1F)C2 [Example 2L, (R)-(1-(4-fluorophenyl)-6-((2-fluorophenyl)sulfonyl)-4,4a,5,6,7,8-hexahydro-1H-pyrazolo[3,4-g]isoquinolin-4a-yl)(pyridin-2-yl)methanone] | < 20 |  | 
7 | < 0.5 | CCn1cc(S(=O)(=O)N2CCC3=Cc4c(cnn4-c4ccc(F)cc4)C[C@]3(C(=O)c3cscn3)C2)cn1 [Example 11BZ, (R)-(6-((1-ethyl-1H-pyrazol-4-yl)sulfonyl)-1-(4-fluorophenyl)-4,4a,5,6,7,8-hexahydro-1H-pyrazolo[3,4-g]isoquinolin-4a-yl)(thiazol-4-yl)methanone] | 20 to 100 |  | 
8 | < 0.5 | COCCn1cc(S(=O)(=O)N2CCC3=Cc4c(cnn4-c4ccc(F)cc4)C[C@]3(C(=O)c3ccccn3)C2)cn1 [Example 11CB, (R)-(1-(4-fluorophenyl)-6-((1-(2-methoxyethyl)-1H-pyrazol-4-yl)sulfonyl)-4,4a,5,6,7,8-hexahydro-1H-pyrazolo[3,4-g]isoquinolin-4a-yl)(pyridin-2-yl)methanone] | < 20 |  | 
9 | < 0.5 | O=C(c1ccccn1)[C@]12Cc3cnn(-c4ccc(F)cc4)c3C=C1CCN(S(=O)(=O)c1ccc(F)c(Cl)c1)C2 [Example 11R, (R)-(6-((3-chloro-4-fluorophenyl)sulfonyl)-1-(4-fluorophenyl)-4,4a,5,6,7,8-hexahydro-1H-pyrazolo[3,4-g]isoquinolin-4a-yl)(pyridin-2-yl)methanone] | < 20 |  | 

The remaining lines, values behind:

Row | Compound | Ki (human recombinant GR; [2]) [nM] | Ki [1, 3] [nM] | Ki (human recombinant GR) [nM] | Ki [1] [nM]
10 | Cc1cnc(C(=O)[C@]23Cc4cnn(-c5ccc(F)cc5)c4C=C2CCN(S(=O)(=O)c2ccn(C)n2)C3)s1 [Example 12S, (R)-(1-(4-fluorophenyl)-6-((1-methyl-1H-pyrazol-3-yl)sulfonyl)-4,4a,5,6,7,8-hexahydro-1H-pyrazolo[3,4-g]isoquinolin-4a-yl)(5-methylthiazol-2-yl)methanone] | < 0.5 | < 20 |  | 
11 | CCCn1cc(S(=O)(=O)N2CCC3=Cc4c(cnn4-c4ccc(F)cc4)C[C@]3(C(=O)c3ccccn3)C2)cn1 [Example 11CA, (R)-(1-(4-fluorophenyl)-6-((1-propyl-1H-pyrazol-4-yl)sulfonyl)-4,4a,5,6,7,8-hexahydro-1H-pyrazolo[3,4-g]isoquinolin-4a-yl)(pyridin-2-yl) methanone] | < 0.5 | < 20 |  | 
12 | O=C(c1nccs1)[C@]12Cc3cnn(-c4ccc(F)cc4)c3C=C1CCN(S(=O)(=O)Cc1cccc(F)c1)C2 [Example 2A, (R)-(6-((3-fluorobenzyl)sulfonyl)-1-(4-fluorophenyl)-4,4a,5,6,7,8-hexahydro-1H-pyrazolo[3,4-g]isoquinolin-4a-yl)(thiazol-2-yl) methanone] | < 0.5 | ≥ 100 |  | 
13 | Cc1ccnc(C(=O)[C@]23Cc4cnn(-c5ccc(F)cc5)c4C=C2CCN(S(=O)(=O)c2cc(F)cc(F)c2)C3)c1 [Example 11W, (R)-(6-((3,5-difluorophenyl)sulfonyl)-1-(4-fluorophenyl)-4,4a,5,6,7,8-hexahydro-1H-pyrazolo[3,4-g]isoquinolin-4a-yl)(4-methylpyridin-2-yl)methanone] | < 0.5 | < 20 |  | 
14 | Cc1cccc(S(=O)(=O)N2CCC3=Cc4c(cnn4-c4ccc(F)cc4)C[C@]3(C(=O)c3cc(C)ccn3)C2)c1 [Example 12G, (R)-(1-(4-fluorophenyl)-6-(m-tolylsulfonyl)-4,4a,5,6,7,8-hexahydro-1H-pyrazolo[3,4-g]isoquinolin-4a-yl)(4-methylpyridin-2-yl)methanone] | < 0.5 | < 20 |  | 
15 | CN(C)C(=O)c1cccc(S(=O)(=O)N2CCC3=Cc4c(cnn4-c4ccc(F)cc4)C[C@]3(C(=O)c3ccccn3)C2)c1 [Example 14, (R)-3-((1-(4-fluorophenyl)-4a-picolinoyl-4a,5,7,8-tetrahydro-1H-pyrazolo[3,4-g]isoquinolin-6 (4H)-yl)sulfonyl)-N,N-dimethylbenzamide] | < 0.5 | 20 to 100 |  | 
16 | Cn1cc(S(=O)(=O)N2CCC3=Cc4c(cnn4-c4ccc(F)cc4)C[C@]3(C(=O)c3cscn3)C2)cn1 [Example 11CY, (R)-(1-(4-fluorophenyl)-6-((1-methyl-1H-pyrazol-4-yl)sulfonyl)-4,4a,5,6,7,8-hexahydro-1H-pyrazolo[3,4-g]isoquinolin-4a-yl)(thiazol-4-yl)methanone] | 0.5 to 1 | 20 to 100 |  | 
17 | CCc1ccnc(C(=O)[C@]23Cc4cnn(-c5ccc(F)cc5)c4C=C2CCN(S(=O)(=O)c2cccc(C(F)(F)F)n2)C3)c1 [Example 11AV, (R)-(4-ethylpyridin-2-yl) (1-(4-fluorophenyl)-6-((6-(trifluoromethyl)pyridin-2-yl)sulfonyl)-4,4a,5,6,7,8-hexahydro-1H-pyrazolo [3,4-g]isoquinolin-4a-yl)methanone] | < 0.5 | < 20 |  | 
18 | O=C(c1nccs1)[C@]12Cc3cnn(-c4ccc(F)cc4)c3C=C1CCN(S(=O)(=O)c1cccc(N3CCCC3)c1)C2 [Example 6A, (R)-(1-(4-fluorophenyl)-6-((3-(pyrrolidin-1-yl)phenyl)sulfonyl)-4,4a,5,6,7,8-hexahydro-1H-pyrazolo[3,4-g]isoquinolin-4a-yl)(thiazol-2-yl)methanone] | < 0.5 | ≥ 100 |  | 
19 | CCn1nncc1S(=O)(=O)N1CCC2=Cc3c(cnn3-c3ccc(F)cc3)C[C@]2(C(=O)c2cc(C(F)(F)F)ccn2)C1 [Example 11CL, (R)-(6-((1-ethyl-1H-1,2,3-triazol-5-yl)sulfonyl)-1-(4-fluorophenyl)-4,4a,5,6,7,8-hexahydro-1H-pyrazolo[3,4-g]isoquinolin-4a-yl)(4-(trifluoromethyl)pyridin-2-yl)methanone] | > 1 | 20 to 100 |  | 
20 | Cn1nncc1S(=O)(=O)N1CCC2=Cc3c(cnn3-c3ccc(F)cc3)C[C@]2(C(=O)c2cc(C(F)(F)F)ccn2)C1 [Example 11CF, (R)-(1-(4-fluorophenyl)-6-((1-methyl-1H-1,2,3-triazol-5-yl)sulfonyl)-4,4a,5,6,7,8-hexahydro-1H-pyrazolo[3,4-g]isoquinolin-4a-yl)(4-(trifluoromethyl)pyridin-2-yl)methanone] | > 1 | 20 to 100 |  | 
21 | O=C(c1ccccn1)[C@]12Cc3cnn(-c4ccc(F)cc4)c3C=C1CCN(S(=O)(=O)c1ccc(C(F)(F)F)cc1)C2 [Example 1, (R)-(1-(4-fluorophenyl)-6-((4-(trifluoromethyl)phenyl)sulfonyl)-4,4a,5,6,7,8-hexahydro-1H-pyrazolo[3,4-g]isoquinolin-4a-yl)(pyridin-2-yl)methanone] |  |  | < 0.5 | < 20
